# Test results as given in ChEMBL document CHEMBL1240532, “Spiroindolones, a potent compound class for the treatment of malaria” (Science, 2010).
# The source made the active and inactive calls. The calls are words filed in the database; no cut-off is given here.
# Tests used:
# Plasmodium berghei [1] = assay: Antimalarial activity against Plasmodium berghei GFP ANKA infected in NMRI mice (Mus musculus) assessed as survival at 30 mg/kg, perorally administered as single dose 24 hrs post infection for 1 day measured 72 hrs post infection; format: functional; conditions: route oral
# Plasmodium berghei [2] = assay: Antimalarial activity against Plasmodium berghei GFP ANKA infected in NMRI mice (Mus musculus) assessed as reduction in parasitaemia dosed in ETPGS formulation 1 day post infection measured 72 hrs post infection; format: functional
# Plasmodium berghei [3] = assay: Antimalarial activity against Plasmodium berghei GFP ANKA infected in NMRI mice (Mus musculus) assessed as survival at 10 mg/kg, perorally administered through 7% Tween80/3% Ethanol formulation 24 hrs post infection for 3 days measured 96 hrs post infection; format: functional; conditions: route oral
# Plasmodium berghei [4] = assay: Antimalarial activity against Plasmodium berghei GFP ANKA infected in NMRI mice (Mus musculus) assessed as reduction in parasitaemia dosed in 7% Tween80/3% ethanol formulation 1 day post infection measured 72 hrs post infection; format: functional
# Plasmodium berghei [5] = assay: Antimalarial activity against Plasmodium berghei GFP ANKA infected in NMRI mice (Mus musculus) assessed as reduction in parasitaemia at 100 mg/kg, perorally administered as single dose 24 hrs post infection for 1 day measured 72 hrs post infection; format: functional; design: scale not given: the % may be the effect or the level left; conditions: route oral
# Plasmodium berghei [6] = assay: Antimalarial activity against Plasmodium berghei GFP ANKA infected in NMRI mice (Mus musculus) assessed as survival at 100 mg/kg, perorally administered as single dose 24 hrs post infection for 1 day measured 72 hrs post infection; format: functional; conditions: route oral
# Plasmodium berghei [7] = assay: Antimalarial activity against Plasmodium berghei GFP ANKA infected in NMRI mice (Mus musculus) assessed as survival at 30 mg/kg, perorally administered through 7% Tween80/3% Ethanol formulation 24 hrs post infection for 3 days measured 96 hrs post infection; format: functional; conditions: route oral
# Plasmodium berghei [8] = assay: Antimalarial activity against Plasmodium berghei GFP ANKA infected in NMRI mice (Mus musculus) assessed as reduction in parasitaemia at 30 mg/kg, perorally administered through 7% Tween80/3% Ethanol formulation 24 hrs post infection for 3 days measured 96 hrs post infection; format: functional; design: scale not given: the % may be the effect or the level left; conditions: route oral
# Plasmodium berghei [9] = assay: Antimalarial activity against Plasmodium berghei GFP ANKA infected in NMRI mice (Mus musculus) assessed as survival at 10 mg/kg, perorally administered as single dose as single dose 24 hrs post infection for 1 day measured 72 hrs post infection; format: functional; conditions: route oral
# Plasmodium falciparum [10] = format: functional, organism-based; conditions: Dd2, 72 h
# Plasmodium falciparum [11] = assay: Antimalarial activity against NITD609-resistant Plasmodium falciparum Dd2 Clone2 bearing P-type ATPase4 T418N and P990R mutations after 72 hrs by SYBR green based fluorescence assay; format: functional, organism-based; conditions: Dd2, 72 h
# Plasmodium falciparum [12] = assay: Antimalarial activity against NITD609-resistant Plasmodium falciparum Dd2 Clone1 bearing P-type ATPase4 I398F and P990R mutations after 72 hrs by SYBR green based fluorescence assay; format: functional, organism-based; conditions: Dd2, 72 h
# Plasmodium falciparum [13] = assay: Antimalarial activity against Plasmodium falciparum Dd2 after 72 hrs by SYBR green based fluorescence assay; format: functional, organism-based; conditions: Dd2, 72 h
# Plasmodium falciparum [14] = assay: Antimalarial activity against Plasmodium falciparum assessed as […] by SYBR green based fluorescence assay; format: functional, organism-based; conditions: for IC50: Plasmodium falciparum
# Plasmodium falciparum [15] = assay: Inhibition of protein synthesis in NITD609-resistant Plasmodium falciparum Dd2 Clone1 within 1 hrs by [35S]Met/Cys incorporation assay; format: functional
# Plasmodium falciparum [16] = assay: Inhibition of protein synthesis in NITD609-resistant Plasmodium falciparum Dd2 Clone3 within 1 hrs by [35S]Met/Cys incorporation assay; format: functional
# Plasmodium berghei [17] = assay: Antimalarial activity against Plasmodium berghei GFP ANKA infected in NMRI mice (Mus musculus) assessed as reduction in parasitaemia at 10 mg/kg, perorally administered as single dose 24 hrs post infection for 1 day measured 72 hrs post infection; format: functional; design: scale not given: the % may be the effect or the level left; conditions: route oral
# Plasmodium falciparum [18] = assay: Antimalarial activity against Plasmodium falciparum 3D7 assessed as parasite growth inhibition at 8 nM after 6 hrs by [3H]hypoxanthin incorporation assay; format: functional
# Plasmodium berghei [19] = assay: Antimalarial activity against Plasmodium berghei GFP ANKA infected in NMRI mice (Mus musculus) assessed as reduction in parasitaemia at 10 mg/kg, perorally administered through 7% Tween80/3% Ethanol formulation 24 hrs post infection for 3 days measured 96 hrs post infection; format: functional; design: scale not given: the % may be the effect or the level left; conditions: route oral
# Plasmodium berghei [20] = assay: Antimalarial activity against Plasmodium berghei GFP ANKA infected in NMRI mice (Mus musculus) assessed as reduction in parasitaemia at 30 mg/kg, perorally administered as single dose 24 hrs post infection for 1 day measured 72 hrs post infection; format: functional; design: scale not given: the % may be the effect or the level left; conditions: route oral
# Plasmodium falciparum [21] = assay: microbe, parasite or virus in culture; conditions: Dd2, 72 h
# Description: Antimalarial activity against Plasmodium falciparum Dd2 containing attB site inserted in parasite genome and using CAM promoter driven expressing ATP4 I398F/P990R mutant after 72 hrs by SYBR green based fluorescence assay
# Plasmodium falciparum [22] = assay: microbe, parasite or virus in culture; conditions: Dd2, 72 h; remark: listed apart in the source
# Description: Antimalarial activity against Plasmodium falciparum Dd2 containing attB site inserted in parasite genome and using EF1-alpha promoter driven expressing ATP4 D1247Y mutant after 72 hrs by SYBR green based fluorescence assay
# Plasmodium falciparum [23] = assay: microbe, parasite or virus in culture; conditions: Dd2, 72 h; remark: listed apart in the source
# Description: Antimalarial activity against Plasmodium falciparum Dd2 containing attB site inserted in parasite genome and expressing parental ATP4 after 72 hrs by SYBR green based fluorescence assay
# Plasmodium falciparum [24] = assay: microbe, parasite or virus in culture; conditions: Dd2, 72 h; remark: listed apart in the source
# Description: Antimalarial activity against Plasmodium falciparum Dd2 containing attB site inserted in parasite genome and using EF1-alpha promoter driven expressing wild type ATP4 after 72 hrs by SYBR green based fluorescence assay
# Plasmodium falciparum [25] = assay: microbe, parasite or virus in culture; conditions: Dd2, 72 h; remark: listed apart in the source
# Description: Antimalarial activity against Plasmodium falciparum Dd2 containing attB site inserted in parasite genome and using CAM promoter driven expressing ATP4 D1247Y mutant after 72 hrs by SYBR green based fluorescence assay
# Plasmodium falciparum [26] = assay: microbe, parasite or virus in culture; conditions: Dd2, 72 h; remark: listed apart in the source
# Description: Antimalarial activity against Plasmodium falciparum Dd2 containing attB site inserted in parasite genome and using EF1-alpha promoter driven expressing ATP4 I398F/P990R mutant after 72 hrs by SYBR green based fluorescence assay
structure (smiles),measurement,setting,value
CCN(CC)CCCC(C)Nc1ccnc2cc(Cl)ccc12 (configuration not stated) [CHLOROQUINE],Survival,Plasmodium berghei [1],8.7 days
same,ED50,Plasmodium berghei [2],1.9 mg/kg
same,Survival,Plasmodium berghei [3],15.4 days
same,ED99,Plasmodium berghei [4],8.4 mg/kg
same,Activity,Plasmodium berghei [5],>99.9%
same,Survival,Plasmodium berghei [6],12 days
same,Survival,Plasmodium berghei [7],18.8 days
same,Activity,Plasmodium berghei [8],98.6%
same,mean survival time at 10 mg/kg,Plasmodium berghei [9],8 days
CCc1nc(N)nc(N)c1-c1ccc(Cl)cc1 [PYRIMETHAMINE],IC50,Plasmodium falciparum [10]; read-out: IC50,> 20 µM
same,IC50,Plasmodium falciparum [11],> 20 µM
same,IC50,Plasmodium falciparum [12],> 20 µM
same,IC50,Plasmodium falciparum [13],> 20 µM
COc1ccc(C[C@H]2NC[C@H](O)[C@H]2OC(C)=O)cc1 [ANISOMYCIN],IC50,Plasmodium falciparum [10]; read-out: IC50,0.0064 µM
same,IC50,Plasmodium falciparum [14],0.025 µM
same,IC50,Plasmodium falciparum [11],0.0092 µM
same,inhibition,Plasmodium falciparum [15],Active
same,inhibition,Plasmodium falciparum [16],Active
same,IC50,Plasmodium falciparum [12],0.0058 µM
same,IC50,Plasmodium falciparum [13],0.0091 µM
C[C@@H]1C[C@@H]([C@H](O)CC2CC(=O)NC(=O)C2)C(=O)[C@@H](C)C1 [CYCLOHEXIMIDE],IC50,Plasmodium falciparum [10],0.301 µM
same,IC50,Plasmodium falciparum [14],0.2 µM
same,IC50,Plasmodium falciparum [11],0.31 µM
same,inhibition,Plasmodium falciparum [15],Active
same,inhibition,Plasmodium falciparum [16],Active
same,IC50,Plasmodium falciparum [12],0.287 µM
same,IC50,Plasmodium falciparum [13],0.32 µM
C/C=C/[C@H]1O[C@@](O)([C@@H](C)[C@H](O)[C@H](C)[C@H]2OC(=O)/C(OC)=C/C(C)=C/[C@@H](C)[C@@H](O)[C@@H](CC)[C@@H](O)[C@H](C)C/C(C)=C/C=C/[C@@H]2OC)C[C@@H](O[C@H]2C[C@@H](O)[C@H](OC(N)=O)[C@@H](C)O2)[C@@H]1C [CONCANAMYCIN A],IC50,Plasmodium falciparum [10]; read-out: IC50,0.007 µM
same,IC50,Plasmodium falciparum [11],0.008 µM
same,IC50,Plasmodium falciparum [12],0.007 µM
same,IC50,Plasmodium falciparum [13],0.0045 µM
CO[C@H]1O[C@@H]2O[C@@]3(C)CC[C@H]4[C@H](C)CC[C@@H]([C@H]1C)[C@@]24OO3,Survival,Plasmodium berghei [1],6.9 days
same,Activity,Plasmodium berghei [17],81%
same,Survival,Plasmodium berghei [3],13.2 days
same,inhibition at 0.008 µM,Plasmodium falciparum [18],> 90%
same,Survival,Plasmodium berghei [6],>7.6 days
same,Activity,Plasmodium berghei [19],99.7%
same,mean survival time at 10 mg/kg,Plasmodium berghei [9],6.2 days
same,Activity,Plasmodium berghei [20],97%
C[C@@H]1CC[C@H]2[C@@H](C)C(=O)O[C@@H]3O[C@@]4(C)CC[C@@H]1[C@]32OO4 [ARTEMISININ],IC50,Plasmodium falciparum [10]; read-out: IC50,0.016 µM
same,inhibition (INH),Plasmodium falciparum [14],<25%
same,IC50,Plasmodium falciparum [14],0.015 µM
same,IC50,Plasmodium falciparum [11],0.018 µM
same,IC50,Plasmodium falciparum [21],0.018 µM
same,IC50,Plasmodium falciparum [22],0.0198 µM
same,IC50,Plasmodium falciparum [23],0.0154 µM
same,IC50,Plasmodium falciparum [24],0.0172 µM
same,IC50,Plasmodium falciparum [25],0.0163 µM
same,IC50,Plasmodium falciparum [12],0.013 µM
same,IC50,Plasmodium falciparum [26],0.0173 µM
OC(c1cc(C(F)(F)F)nc2c(C(F)(F)F)cccc12)C1CCCCN1 (configuration not stated) [MEFLOQUINE],Survival,Plasmodium berghei [1],18.2 days
same,Activity,Plasmodium berghei [17],95%
same,ED50,Plasmodium berghei [2],4.2 mg/kg
same,IC50,Plasmodium falciparum [10]; read-out: IC50,0.008 µM
same,inhibition (INH),Plasmodium falciparum [14],<25%
same,Survival,Plasmodium berghei [3],13.8 days
same,ED99,Plasmodium berghei [4],8.6 mg/kg
same,IC50,Plasmodium falciparum [11],0.007 µM
same,IC50,Plasmodium falciparum [21],0.0129 µM
same,IC50,Plasmodium falciparum [22],0.0125 µM
same,Activity,Plasmodium berghei [5],89%
same,Survival,Plasmodium berghei [6],28 days
same,Survival,Plasmodium berghei [7],14 days
same,IC50,Plasmodium falciparum [25],0.011 µM
same,Activity,Plasmodium berghei [8],99.9%
same,Activity,Plasmodium berghei [19],99.9%
same,IC50,Plasmodium falciparum [12],0.0067 µM
same,mean survival time at 10 mg/kg,Plasmodium berghei [9],15.2 days
same,IC50,Plasmodium falciparum [26],0.0141 µM
same,Activity,Plasmodium berghei [20],98%
C[C@H]1[C@H](OC(=O)CCC(=O)O)O[C@@H]2O[C@@]3(C)CC[C@H]4[C@H](C)CC[C@@H]1[C@@]24OO3 [ARTESUNATE],Activity,Plasmodium berghei [17],70%
same,ED50,Plasmodium berghei [2],6.2 mg/kg
same,Survival,Plasmodium berghei [3],6.5 days
same,ED99,Plasmodium berghei [4],135 mg/kg
same,Survival,Plasmodium berghei [6],6.7 days
same,Survival,Plasmodium berghei [7],7.2 days
same,Activity,Plasmodium berghei [8],98%
same,Activity,Plasmodium berghei [19],92%
same,mean survival time at 10 mg/kg,Plasmodium berghei [9],7.3 days
same,Activity,Plasmodium berghei [20],89%
C/C=C(/C)C(=O)O[C@H]1C(C)=C2[C@H]([C@@H]1OC(=O)CCCCCCC)[C@@](C)(OC(C)=O)C[C@H](OC(=O)CCC)[C@@]1(O)[C@H]2OC(=O)[C@@]1(C)O [THAPSIGARGIN],IC50,Plasmodium falciparum [10]; read-out: IC50,1.05 µM
same,IC50,Plasmodium falciparum [11],1.11 µM
same,IC50,Plasmodium falciparum [12],0.813 µM
same,IC50,Plasmodium falciparum [13],0.905 µM
CC(=O)C1=C(O)[C@@H]2[C@H]3c4c[nH]c5cccc(c45)C[C@H]3C(C)(C)N2C1=O [CYCLOPIAZONIC ACID],IC50,Plasmodium falciparum [10]; read-out: IC50,3.24 µM
same,IC50,Plasmodium falciparum [11],4.16 µM
same,IC50,Plasmodium falciparum [12],3.46 µM
same,IC50,Plasmodium falciparum [13],3.42 µM
O=C1C(O)=C([C@H]2CC[C@H](c3ccc(Cl)cc3)CC2)C(=O)c2ccccc21 [ATOVAQUONE],IC50,Plasmodium falciparum [10]; read-out: IC50,0.0006 µM
same,IC50,Plasmodium falciparum [11],0.0008 µM
same,IC50,Plasmodium falciparum [12],0.0006 µM
same,IC50,Plasmodium falciparum [13],0.0008 µM
